Test system: tracheal rings
Test: NO-mediated relaxation of preconstricted tracheal rings
Parameters: species or system rat
Conditions: absence of peroxidases
Source text: Normal rats were sacrificed and their trachea removed. Under the dissecting microscope, each trachea was freed of adventitia and fat tissue. A cylindrical airway segment of 3 mm length was isolated from the midtrachea of each animal and placed in a modified Krebs-Henseleit (KH) solution of the following composition (mM): NaCl, 118.2; NaHCO3, […], 4.6; KH2PO4, 1.2; MgSO4, 1.2; CaCl2 and dextrose, […], with a pH adjusted to 7.4. The solution was continuously aerated with 5% […] balanced with O2. […] Generated forces were continuously monitored and recorded on a rectilinear chart recorder. […]
A cumulative concentration-response curve to bethanecol (3×10^−8 to 10^−3 M) was obtained for each cylinder. The concentration of bethanecol that elicited 50-75% of maximal response (ED 50-75) was determined. […] The percent relaxation from the precontracted state was calculated for each cylinder. The percent relaxation in response to EFS was calculated from the reduction in tension (in grams) in relation to baseline tension in the precontracted state, each tracheal segment serving as its own control (before and after EFS exposure). […]
The effect of peroxidases on the concentration dependence of NO-mediated relaxation of preconstricted tracheal rings was quantified. […]

Structure (SMILES): [N]=O [NO, nitric oxide]
- NO concentration at which relaxation reached a maximum: ~4 µM
